Usually melting point stands for the temperature of the solid-liquid transition. One may read the IC50 as the point on the concentration scale where inhibition reaches its midpoint. A low value points to greater potency.

Structures are written as SMILES. Structures can show the parent of a compound that is named as a salt.

In data set [1] the target is T1, muscarinic receptors (M1-site, pirenzepine sensitive site) (Rattus norvegicus, UniProt P08482).
T1 construct: Fresh cortex (0.1-1 g) from male Wistar rats (150-200 g) is homogenized; from tissue; host or cells: rat (male Wistar) cerebral cortex membranes
T1 sequence (P08482 1-460): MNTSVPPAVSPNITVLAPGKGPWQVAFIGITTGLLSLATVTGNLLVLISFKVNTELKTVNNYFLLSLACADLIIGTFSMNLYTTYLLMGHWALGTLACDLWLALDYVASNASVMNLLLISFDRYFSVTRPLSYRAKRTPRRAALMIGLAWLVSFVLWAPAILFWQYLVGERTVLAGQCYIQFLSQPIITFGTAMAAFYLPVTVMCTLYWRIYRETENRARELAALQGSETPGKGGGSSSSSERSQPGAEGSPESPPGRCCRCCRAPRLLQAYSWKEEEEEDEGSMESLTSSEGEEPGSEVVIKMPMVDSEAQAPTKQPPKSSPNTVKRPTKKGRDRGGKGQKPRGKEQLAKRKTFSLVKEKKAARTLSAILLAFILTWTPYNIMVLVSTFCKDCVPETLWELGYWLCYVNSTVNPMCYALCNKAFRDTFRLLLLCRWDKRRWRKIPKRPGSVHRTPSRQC
The experiment in a line: Inhibition of 3H-PRZ (pirenzepine, [N-methyl-3H]) binding to rat cerebral cortex membranes. To be noted: 1.0 nM 3H-Pirenzepine, 60 min at 20° C. The protocol:
Furthermore the pharmacological properties of the compounds of the invention can also be illustrated by determining their capability to inhibit ^3H-PRZ (pirenzepine, [N-methyl-^3H]) binding to rat cerebral cortex membranes. Pirenzepine binds selectively to subtype of muscarinic receptors. Historically the type is named the M1-site, whereas pirenzepine sensitive site would be more appropriate. Although selective for M1-sites pirenzepine also interact with M2-sites.
All preparations are performed at 0-4° C. unless otherwise indicated. Fresh cortex (0.1-1 g) from male Wistar rats (150-200 g) is homogenized for 5-10 s. in 10 ml 20 mM Hepes pH: 7.4, with an Ultra-Turrax homogenizer. The homogenizer is rinsed with 2×10 ml of buffer and the combined suspension centrifuged for 15 min at 40,000×g. The pellet is washed three times with buffer. In each step the pellet is homogenized as before in 3×10 ml of buffer and centrifuged for 10 min at 40,000×g.
The final pellet is homogenized in 20 mM Hepes pH: 7.4 (100 ml per g of original tissue) and used for binding assay. Aliquots of 0.5 ml is added 20 μl of test solution and 25 μl of ^3H-Pirenzepine (1.0 nM, final conc.), mixed and incubated for 60 min at 20° C. Non-specific binding is determined in triplicate using atropine (1 μg/ml, final conc.) as the test substance. After incubation samples are added 5 ml of ice-cold buffer and poured directly onto Whatman GF/C glass fiber filters under suction and immediately washed 2 times with 5 ml of ice-cold buffer. The amount of radioactivity on the filters are determined by conventional liquid scintillation counting. Specific binding is total binding minus non-specific binding.
Test substances are dissolved in 10 ml water, at a concentration of 0.22 mg/ml. 25-75% inhibition of specific binding must be obtained before calculation of IC50.
The test value will be given as IC50 (the concentration (nM) of the test substance which inhibits the specific binding of ^3H-PRZ by 50%).
(§1) IC50=(applied test substance concentration)×(Cx/Co−Cx)nM
(§2) where Co is specific binding in control assays and Cx is the specific binding in the test assay. (The calculations assume normal mass-action kinetics).

The target in data set [2] is muscarinic acetylcholine receptors. Kind of data set: Inhibition of specific binding of 3H-Oxotremorine-M (3H-Oxo) to rat cortex membranes. The following applies: rat cortex homogenate, 1.0 nM 3H-Oxotremorine, 30 min at 25° C.
From the text: The pharmacological properties of the compounds of the invention can be illustrated by determining their capability to inhibit the specific binding of ^3H-Oxotremorine-M (^3H-Oxo). Birdsdall N. J. M., Hulme E. C., and Burgen A. S. V. (1980). “The Character of Muscarinic Receptors in Different Regions of the Rat Brain”. Proc. Roy. Soc. London (Series B) 207, 1.
^3H-Oxo labels muscarinic receptor in the CNS (with a preference for agonist domains of the receptors). Three different sites are labelled by ^3H-Oxo. […] Using the present experimental conditions only the high and medium affinity sites are determined.
The inhibitory effects of compounds on ^3H-Oxo binding reflects the affinity for muscarinic acetylcholine receptors.
All preparations are performed at 0-4° C. unless otherwise indicated. Fresh cortex (0.1-1 g) from male Wistar rats (150-250 g) is homogenized for 5-10 s in 10 ml 20 mM Hepes pH: 7.4, with an Ultra-Turrax homogenizer. The homogenizer is rinsed with 10 ml of buffer and the combined suspension centrifuged for 15 min. at 40,000×g. The pellet is washed three times with buffer. In each step the pellet is homogenized as before in 2×10 ml of buffer and centrifuged for 10 min. at 40,000×g.
The final pellet is homogenized in 20 mM Hepes pH: 7.4 (100 ml per g of original tissue) and used for binding assay. Aliquots of 0.5 ml is added 25 μl of test solution and 25 μl of ^3H-Oxotremorine (1.0 nM, final concentration) mixed and incubated for 30 min. at 25° C. Non-specific binding is determined in triplicate using arecoline (1 μg/ml, final concentration) as the test substance. After incubation samples are added 5 ml of ice-cold buffer and poured directly onto Whatman GF/C glass fiber filters under suction and immediately washed 2 times with 5 ml of ice-cold buffer. The amount of radioactivity on the filters are determined by conventional liquid scintillation counting. Specific binding is total binding minus non specific binding.
Test substances are dissolved in 10 ml water (if necessary heated on a steambath for less than 5 min.) at a concentration of 2.2 mg/ml. 25-75% inhibition of specific binding must be obtained before calculation of IC50.
The test value will be given as IC50 (the concentration (nM) of the test substance which inhibits the specific binding of ^3H-Oxo by 50%).
as §1, §2

In turn, `CC#CCOc1nsnc1OC1CN2CCC1C2` (stereo not drawn) (as salt: oxalate) [Compound 11, Endo 3-(3-[2-butynyl-1-oxy]-1,2,5-thiadiazol-4-yloxy)-1-azabicyclo[2.2.1]heptane, oxalate] displayed a melting point of 194 to 196 °C.

The molecule `Fc1cc(C(F)(F)F)ccc1COc1nsnc1OC1CN2CCC1C2` (stereo not drawn) (as salt: oxalate) [Compound 16, Endo 3-(3-[2-fluoro-4-(trifluoromethyl)-benzyloxy]-1,2,5-thiadiazol-4-yloxy)-1-azabicyclo[2.2.1]heptane, oxalate] showed a melting point of 112 to 114 °C.

Take `FC(F)(F)c1cccc(C#CCOc2nsnc2OC2CN3CCC2C3)c1` (stereo not drawn) (as salt: oxalate) [Compound 20, Endo 3-(3-(3-(3-trifluoromethylphenyl)-2-propynyl-1-oxy)-1,2,5-thiadiazol-4-yloxy)-1-azabicyclo[2.2.1]heptane, oxalate]: the melting point lay in the range of 131 to 135 °C.

As for `C(#Cc1cccnc1)COc1nsnc1OC1CN2CCC1C2` (stereo not drawn) (as salt: oxalate) [Compound 23, Endo 3-(3-(3-pyridyl)-2-propyn-1-yloxy)-1,2,5-thiadiazol-4-yloxy)-1-azabicyclo[2.2.1]heptane, dioxalate], the melting point fell in the range of 136 to 139 °C.

As for `COc1cccc(C#CC(Oc2nsnc2OC2CN3CCC2C3)C(C)C)c1` (stereo not drawn) (as salt: oxalate) [Compound 39, Endo 3-(3-[1-(3-methoxyphenyl)-4-methyl-1-pentyn-3-yloxy]-1,2,5-thiadiazol-4-yloxy)-1-azabicyclo[2.2.1]heptane, oxalate], the melting point is 144 to 147 °C.

As to `N#CCCSc1nsnc1OC1CN2CCC1C2` (stereo not drawn) (as salt: oxalate) [Compound 32, Endo 3-(3-[2-cyanoethylthio]-1,2,5-thiadiazol-4-yloxy)-1-azabicyclo-[2.2.1]heptane, oxalate], the melting point fell in the range of 168 to 169 °C.

With `FC(F)(F)C(F)(F)C(F)(F)COc1nsnc1OC1CN2CCC1C2` (stereo not drawn) [Compound 27, Endo 3-(3-(2,2,3,3,4,4,4-heptafluorobutyl-1-oxy)-1,2,5-thiadiazol-4-yloxy)-1-azabicyclo[2.2.1]heptane, oxalate], the IC50 came out at 5.3 nM in data set [1] and 8.3 nM in data set [2].

As to `Clc1ccc(C#CCOc2nsnc2OC2CN3CCC2C3)cc1` (stereo not drawn) [Compound 18, Endo 3-(3-[3-(4-chlorophenyl)-2-propynyl-1-oxy]-1,2,5-thiadiazol-4-yloxy)-1-azabicyclo[2.2.1]heptane, oxalate], the IC50 in data set [1] was found to be 12 nM; in data set [2], 79 nM.

Regarding `COc1cccc(C#CC(Oc2nsnc2OC2CN3CCC2C3)C(C)C)c1` (stereo not drawn) [Compound 39, Endo 3-(3-[1-(3-methoxyphenyl)-4-methyl-1-pentyn-3-yloxy]-1,2,5-thiadiazol-4-yloxy)-1-azabicyclo[2.2.1]heptane, oxalate], the IC50 turned out to be 56 nM in data set [1] and 105 nM in data set [2].

As for `CCCCSc1nsnc1OC1CN2CCC1C2` (stereo not drawn) [Compound 1, Endo 3-(3-butylthio-1,2,5-thiadiazol-4-yloxy)-1-azabicyclo[2.2.1]heptane, oxalate], the IC50 is 0.14 nM in data set [1] and 1.6 nM in data set [2].

As for `N#CCCSc1nsnc1OC1CN2CCC1C2` (stereo not drawn) [Compound 32, Endo 3-(3-[2-cyanoethylthio]-1,2,5-thiadiazol-4-yloxy)-1-azabicyclo-[2.2.1]heptane, oxalate], the IC50 stood at 34 nM in data set [1] and 3.1 nM in data set [2].

On to `CCC(C#Cc1cccc(OC)c1)Oc1nsnc1OC1CN2CCC1C2` (stereo not drawn) [Compound 19, Endo 3-(3-[1-(3-methoxyphenyl)-1-pentyn-3-yloxy]-1,2,5-thiadiazol-4-yloxy)-1-azabicyclo[2.2.1]heptane, oxalate], for which the IC50 came out at 53 nM in data set [1] and 126 nM in data set [2].

As to `FC(F)(F)CCSc1nsnc1OC1CN2CCC1C2` (stereo not drawn) [Compound 29, Endo 3-(3-(3,3,3-trifluoropropylthio)-1,2,5-thiadiazol-4-yloxy)-1-azabicyclo-[2.2.1]heptane, oxalate], the IC50 was 9.1 nM in data set [1] and 3.1 nM in data set [2].

`CC#CCOc1nsnc1OC1CN2CCC1C2` (stereo not drawn) [Compound 11, Endo 3-(3-[2-butynyl-1-oxy]-1,2,5-thiadiazol-4-yloxy)-1-azabicyclo[2.2.1]heptane, oxalate]: the concentration for half-maximal inhibition (IC50) was determined as 23 nM in data set [1] and 2.1 nM in data set [2].

As for `C(#Cc1ccsc1)COc1nsnc1OC1CN2CCC1C2` (stereo not drawn) [Compound 36, Endo 3-(3-[3-(3-thienyl)-2-propyn-1-yloxy]-1,2,5-thiadiazol-4-yloxy)-1-azabicyclo[2.2.1]heptane, oxalate], the IC50 came out at 4.7 nM in data set [1] and 1 nM in data set [2].

Turning to `FC(F)(F)COc1nsnc1OC1CN2CCC1C2` (stereo not drawn) [Compound 40, Endo 3-(3-[2,2,2-trifluoroethyl-1-oxy]-1,2,5-thiadiazol-4-yloxy)-1-azabicyclo[2.2.1]heptane, oxalate], the figures for the IC50 in data set [1] and in data set [2] were 43 nM and 1.8 nM, respectively.

With `C(#Cc1cccnc1)COc1nsnc1OC1CN2CCC1C2` (stereo not drawn) [Compound 23, Endo 3-(3-(3-pyridyl)-2-propyn-1-yloxy)-1,2,5-thiadiazol-4-yloxy)-1-azabicyclo[2.2.1]heptane, dioxalate], the figures for the IC50 in data set [1] and in data set [2] were 13 nM and 1.6 nM, respectively.

For the molecule `CSCCOc1nsnc1OC1CN2CCC1C2` (stereo not drawn) [Compound 12, Endo 3-(3-methylthioethoxy-1,2,5-thiadiazol-4-yloxy)-1-azabicyclo-[2.2.1]heptane, oxalate], the concentration for half-maximal inhibition (IC50) in data set [1] is 29 nM; in data set [2], 3.7 nM.

Consider `C(CC1CC1)Oc1nsnc1OC1CN2CCC1C2` (stereo not drawn) [Compound 8, Endo 3-(3-[2-cyclopropylethyl-1-oxy]-1,2,5-thiadiazol-4-yloxy)-1-azabicyclo[2.2.1]heptane, oxalate], for which the IC50 in data set [1] came to 9.8 nM; in data set [2] it was 4.9 nM.

As to `CC(C#Cc1ccc(F)cc1)=CCOc1nsnc1OC1CN2CCC1C2` (stereo not drawn) [Compound 21, Endo (Z)-3-(3-(5-(4-fluorophenyl)-3-methyl-2-penten-4-yn-1-yloxy)-1,2,5-thiadiazol-4-yloxy)-1-azabicyclo[2.2.1]heptane], the figures for the IC50 in data set [1] and in data set [2] were 100 nM and 302 nM, respectively.
